Experimental data taken from patent US20040039053A1, “Use of(-) (3-halomethylphenoxy) (4-halophenyl) acetic acid derivatives for treatment of insulin resistance, type 2 diabetes, hyperlipidemia and hyperuricemia” (priority 2000, published 2004).
“Also recorded” adds a separate entry of the source.

What was measured:
[1] = target: T1, CYP2A6 (Homo sapiens, UniProt P11509); experiment: Cytochrome P450 isoform inhibition in human hepatic microsomes, coumarin (Example 18); details: positive control 250 μM; VC 32.0 ± 1.4
T1 sequence (P11509 1-494): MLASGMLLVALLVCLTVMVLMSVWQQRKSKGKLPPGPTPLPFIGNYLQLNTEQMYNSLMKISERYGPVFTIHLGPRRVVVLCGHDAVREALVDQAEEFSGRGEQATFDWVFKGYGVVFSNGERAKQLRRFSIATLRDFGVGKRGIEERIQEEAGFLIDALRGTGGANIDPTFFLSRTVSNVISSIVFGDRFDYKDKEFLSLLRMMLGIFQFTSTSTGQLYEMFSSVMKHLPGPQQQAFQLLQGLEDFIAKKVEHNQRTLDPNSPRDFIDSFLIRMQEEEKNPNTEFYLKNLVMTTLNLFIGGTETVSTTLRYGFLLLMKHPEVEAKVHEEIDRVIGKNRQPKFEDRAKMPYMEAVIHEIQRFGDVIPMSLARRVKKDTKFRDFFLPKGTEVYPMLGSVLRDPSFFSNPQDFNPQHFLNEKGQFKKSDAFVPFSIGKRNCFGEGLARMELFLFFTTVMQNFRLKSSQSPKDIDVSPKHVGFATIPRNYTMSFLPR

[2] = system: diabetic ob/ob mice; experiment: Time course of glucose-lowering after a single oral dose in ob/ob mice (Example 8); type: in vivo; details: single oral dose 250 mg/kg; for onset and duration of glucose-lowering action, in words: 250 mg/kg
[3] = system: Zucker fatty rats; experiment: Short insulin tolerance test in Zucker fatty rats (Example 10); type: in vivo; details: 50 mg/kg/day for 5 days
Procedure: (§1) Prior to treatment, rats were assigned to 6 groups based on body weight. Each treatment group consisted of 8 rats. […] The gavage volume was 10 ml/kg. All rats received an oral glucose challenge (1.9 g/kg) 5.5 hours after the treatment and 4 hours after withdrawal of the food. Blood samples were taken at 0, 15, 30, 60, 90, 120, and 180 minutes following the glucose challenge for plasma glucose measurement. […] On day 5, rats received the intravenous insulin (0.75 U/kg) 5.5 hours after the last dose and 4 hours after withdrawal of the food. Blood samples were taken at 3, 6, 9, 12, 15 and 18 minutes following the insulin injection for plasma glucose measurement.

[4] = system: C57BL/6J db/db mice; experiment: Prevention of diabetes and alleviation of hypertriglyceridemia in db/db mice (Example 15); type: in vivo; details: 150 mg/kg/day in chow, 9 weeks; for plasma triglyceride levels with age, in words: 150 mg/kg/day
Procedure: Blood samples were taken at 8-10 AM once a week for 9 weeks under non-fasting condition. Food intake and body weight were measured every 1-3 days. Plasma glucose and triglyceride concentrations were determined calorimetrically using kits from Sigma Chemical Co (No. 315 and No. 339, St. Louis, Mo., USA). Plasma insulin levels were measured using RIA assay kit purchased from Linco Research (St. Charles, Mo.).

[5] = system: Zucker fatty rats; experiment: Oral glucose challenge in Zucker fatty rats (Example 10); type: in vivo; details: racemate 100 mg/kg, enantiomers 50 and 100 mg/kg
Procedure: as §1

[6] = system: Zucker Diabetic Fatty rats; experiment: Lipid lowering activity in Zucker Diabetic Fatty rats (Example 11); type: in vivo; details: ZDF rats; for lowering of plasma triglyceride vs control at 7 days, in words: 37.5 mg/kg/day; for difference in plasma cholesterol between control and treated groups, in words: experiment I, 7 and 13 days
Procedure: Male Zucker diabetic fatty (ZDF) rats were obtained from GMI Laboratories (Indianapolis, Ind.) at 9 weeks of age. Vehicle or enantiomers of halofenate administered by oral gavage on a daily basis starting at 74 days of age. Initial blood samples were obtained for analysis one day before treatment and at the indicated times in the treatment protocol. Blood was analyzed for plasma triglyceride and cholesterol by standard techniques.

[7] = system: ZDF rats; experiment: Plasma glucose in ZDF rats, (−) versus (+) halofenate (Example 13); type: in vivo; details: 50 mg/kg oral once a day for 3 days
Procedure: Male 8-9 week old ZDF rats were purchased from Genetic Models, Inc. (Indianapolis, Ind.). […] Rats that had 4-hour fasting plasma glucose levels between 200 and 500 mg/dL were used. […] The gavage volume was 5 ml/kg. Blood samples were taken at 5 hours post dose on day 2 and 3.

[8] = system: oxonic acid induced hyperuricemic rats; experiment: Plasma uric acid in oxonic acid induced hyperuricemic rats (Example 17); type: in vivo; details: oxonic acid hyperuricemic SD rats, oral 50 mg/kg for 3 days, 100 mg/kg on day 4, 6 hours post gavage
From the text: Male SD rats, weight 275-300 g were purchased from Charles River. […] To establish a hyperuricemic state, animals were put on a diet containing 2.5% (w/w) of oxonic acid (Sigma Chemical Co, St. Louis, Mo., USA) throughout the experiment. Oxonic acid elevates plasma uric acid by inhibiting uricase. Rats were screened for plasma uric acid levels 3 days after they were placed on the diet, and those that had extreme plasma uric acid levels were excluded. Rats were assigned to one of three groups and the mean uric acid levels were equivalent in each group. […] Oxonic acid was delivered in a liquid formulation containing 0.9% (w/v) methylcellulose. The gavage and injection volumes were 5 ml/kg. Blood samples were taken at 6 hours post oral gavage on day 4. Plasma uric acid levels were determined colorimetrically using the Infinity Uric Acid Reagent (Sigma Chemical Co, St. Louis, Mo., USA).

[9] = system: diabetic ob/ob mice; experiment: Glucose and insulin lowering on daily oral administration for 5 days in ob/ob mice (Example 9)
Procedure: Animals were housed (4-5 mice/cage) under standard laboratory conditions at 22° C. and 50% relative humidity, and were maintained on a diet of Purina rodent chow and water ad libitum. Prior to treatment, blood was collected from the tail vein of each animal. Mice that had non-fasting plasma glucose levels between 300 and 520 mg/dL were used. Each treatment group consisted of 10 mice that were distributed so that the mean glucose levels were equivalent in each group as the start of the study. […] The gavage volume was 10 ml/kg. Blood samples were taken at 3, 6, 27, 30 and 120 hour after the first dose and analyzed for plasma glucose and insulin. The animals were fasted overnight (14 hours) before the 120 hours sampling. Plasma glucose concentrations were determined calorimetrically using glucose oxidase method (Sigma Chemical Co, St. Louis, Mo., USA). Plasma insulin concentrations were determined by using the Rat Insulin RIA Kit from Linco Research Inc. (St. Charles, Mo., USA). Significance difference between groups (comparing drug-treated to vehicle-treated) was evaluated using Student unpaired t-test.

[10] = 250 mg/kg/day oral, listed as (−) enantiomer, 250 mg/kg/day

SMILES: N[C@@H]1C[C@H]1c1ccccc1 (racemic) [TRAN, tranylcypromine]
- Coumarin 7-HC Production [1]: 0.00 ± 0.00 pmol/mg protein/min

SMILES: CC(=O)NCCOC(=O)C(Oc1cccc(C(F)(F)F)c1)c1ccc(Cl)cc1 (single isomer, unassigned; (-)) [(−) halofenate, (−) 2-acetamidoethyl 4-chlorophenyl-(3-trifluoromethylphenoxy)-acetate]
- glucose lowering compared with the (+) enantiomer at 3 hour and 24 hour time points [2]: more effective and significantly different (p<0.05) from the (+) enantiomer
- onset and duration of glucose-lowering action, in words [2]: more rapid onset and sustained longer
- onset and duration of glucose-lowering action, in words ([2]; listed as (−) enantiomer): most rapid onset of action and the longest duration of action
- insulin sensitivity (slope of decline in glucose after i.v. insulin), in words [3]: improved significantly; also recorded: significantly more insulin sensitive
- increase of plasma glucose levels with age, in words [4]: prevented or significantly delayed
- plasma insulin concentration with age, in words [4]: maintained the plasma insulin concentration
- plasma triglyceride levels with age, in words [4]: alleviated hyperlipidemia
- plasma triglyceride levels with age, in words ([4]; listed as (−) Halofenate): alleviated the increase of plasma triglyceride concentration
- plasma glucose after oral glucose challenge, in words ([5]; single oral dose 5.5 hours before challenge): most effective in lowering the glucose; also recorded: greatest degree of glucose-lowering of all the treated animals
- incremental glucose area under the curve (AUC) vs control, in words ([5]; single oral dose): significant reductions in the glucose area; also recorded: Significant changes (p<0.05)
- days of treatment with significant plasma cholesterol decrease vs control ([6]; 12.5 mg/kg/day (Low dose)): 7 days
- plasma triglyceride levels, in words ([6]; 37.5 mg/kg/day (High dose)): lowest triglyceride levels of all the treatment groups
- lowering of plasma triglyceride vs control at 7 days, in words ([6]; 37.5 mg/kg/day (High dose), listed as (−) enantiomer of halofenate): greater magnitude
- lowering of plasma triglyceride vs control at 7 days, in words ([6]; 37.5 mg/kg/day (High dose), listed as (−) enantiomer): significant lowering of plasma triglyceride
- plasma cholesterol course during treatment, in words ([6]; 13 days, racemate 50 mg/kg/day, enantiomers 25 mg/kg/day): plasma cholesterol declined with treatment
- extent of plasma cholesterol lowering, in words ([6]; 14 days, 37.5 mg/kg/day (High dose)): greatest extent of cholesterol lowering
- difference in plasma cholesterol between control and treated groups, in words ([6]; enantiomers 25 mg/kg/day): significant decrease in plasma cholesterol
- difference in plasma cholesterol between control and treated groups, in words ([6]; enantiomers 25 mg/kg/day, listed as (−) enantiomer): most active of the species tested
- plasma glucose compared to vehicle-treated animals, in words [7]: significantly reduced plasma glucose concentrations
- plasma uric acid levels vs vehicle, in words [8]: significantly reduced plasma uric acid levels
- overnight fasting plasma insulin after 5 days, in words ([9]; 125 mg/kg/day oral, listed as (−) enantiomer, 125 mg/kg/day): Significantly lower plasma insulins
- time points with significant plasma glucose reduction vs control ([9]; 250 mg/kg/day oral, 250 mg/kg/day): also active at 3 hours
- overnight fasting plasma insulin after 5 days, in words [9, 10]: Significantly lower plasma insulins
- time points with reduced plasma insulin vs control [9, 10]: greatest extent of reduced plasma insulin was noted at 27 and 30 hours
